pIC50: −log10 of the molar value.
Key:
[1] = test system: Rattus norvegicus; assay: In vivo inhibition of DGAT2 in high fat/high cholesterol diet fed Sprague-Dawley rat model assessed as reduction in hepatic triglyceride level administered orally twice daily for 7 days starting from day 14 post diet and measured 2 hrs post last dose; type: functional, organism-based; conditions: dose 0.3-90 mg/kg, route po, time 7.0 day, DDE = dose-dependent effect
[2] = Genotoxicity in human TK6 cells by micronucleus test; type: toxicity, cell-based
[3] = test system: Rattus norvegicus; assay: In vivo inhibition of DGAT2 in high fat/high cholesterol diet fed Sprague-Dawley rat model assessed as reduction in plasma triglyceride level administered orally twice daily for 7 days starting from day 14 post diet and measured 2 hrs post last dose; type: functional, organism-based; conditions: dose 0.3-90 mg/kg, route po, time 7.0 day, DDE = dose-dependent effect
[4] = Inhibition of [14C]-glycerol incorporation into triglycerides in rat primary hepatocytes; type: functional, cell-based; conditions: hepatocyte
[5] = target: CYP3A4/5 (Homo sapiens, UniProt P08684+P20815); assay: Reversible inhibition of CYP3A4/5 in pooled human liver microsomes; type: ADME, Microsome
[6] = target: T1, Cytochrome P450 2C8 (Homo sapiens, UniProt P10632); assay: Reversible inhibition of CYP2C8 in pooled human liver microsomes using desethylamodiaquine as substrate incubated for 10 mins in presence of NADPH by HPLC-MS/MS analysis; type: ADME, Microsome
T1 sequence (P10632 whole entry): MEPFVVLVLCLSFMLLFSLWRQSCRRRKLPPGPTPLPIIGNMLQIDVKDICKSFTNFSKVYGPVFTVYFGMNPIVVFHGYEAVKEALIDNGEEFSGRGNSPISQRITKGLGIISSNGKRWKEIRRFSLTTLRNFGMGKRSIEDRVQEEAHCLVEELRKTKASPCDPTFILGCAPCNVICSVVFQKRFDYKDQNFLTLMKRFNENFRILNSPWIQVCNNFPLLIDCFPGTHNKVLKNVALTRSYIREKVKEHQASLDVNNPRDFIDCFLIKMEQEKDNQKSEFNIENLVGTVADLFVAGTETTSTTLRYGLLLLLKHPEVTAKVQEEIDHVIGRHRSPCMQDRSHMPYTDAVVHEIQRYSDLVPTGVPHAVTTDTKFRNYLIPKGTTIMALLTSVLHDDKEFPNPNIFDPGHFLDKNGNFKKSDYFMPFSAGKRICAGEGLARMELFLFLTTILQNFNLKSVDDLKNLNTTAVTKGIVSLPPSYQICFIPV

[7] = target: Cytochrome P450 2C9 (Homo sapiens, UniProt P11712); assay: Reversible inhibition of CYP2C9 in pooled human liver microsomes using 4-Hydroxydiclofenac as substrate incubated for 10 mins in presence of NADPH by HPLC-MS/MS analysis; type: ADME, Microsome
[8] = In vivo inhibition of DGAT2 in high fat/high cholesterol diet fed Sprague-Dawley rat model assessed as reduction in plasma triglyceride level at 90 mg/kg, po administered twice daily for 7 days starting from day 14 post diet and measured 2 hrs post last dose relative to control; type: functional; parameters: scale not given: the % may be the effect or the level left; conditions: time 7 day
[9] = Drug metabolism in rat hepatocytes assessed as oxidation of THF ring mediated metabolite formation; type: ADME, cell-based, Hepatocyte
[10] = Half life in Wistar Han rat at 5 mg/kg, po; type: ADME, organism-based; conditions: in vivo
[11] = Toxicity in rat assessed as development-limiting toxicity; conditions: in vivo
[12] = Drug metabolism in cryopreserved human hepatocytes assessed as O-dearylation mediated oxidative metabolite formation at 10 uM measured for 240 mins by HPLC-UV-MS analysis; type: ADME, cell-based, Hepatocyte; conditions: 4 h
[13] = Apparent permeability in MDCK-II cells; type: ADME, cell-based, Canis lupus familiaris; conditions: dog, MDCK; read-out: Papp
[14] = Drug metabolism in rat hepatocytes assessed as hydrolytic cleavage of amide bond mediated metabolite formation; type: ADME, cell-based, Hepatocyte
[15] = Half life in cynomolgus monkey at 5 mg/kg, po; type: ADME, organism-based, Macaca fascicularis; conditions: in vivo
[16] = Drug metabolism in cryopreserved human hepatocytes assessed as oxidation of THF ring mediated metabolite formation at 10 uM measured for 240 mins by HPLC-UV-MS analysis; type: ADME, cell-based, Hepatocyte; conditions: 4 h
[17] = Half life in Wistar Han rat at 1 mg/kg, iv; type: ADME, organism-based; conditions: in vivo
[18] = Plasma clearance in cynomolgus monkey at 1 mg/kg, iv; type: ADME, organism-based, Macaca fascicularis
[19] = Drug metabolism in cryopreserved human hepatocytes assessed as hydrolytic cleavage of amide bond mediated metabolite formation at 10 uM measured for 240 mins by HPLC-UV-MS analysis; type: ADME, cell-based, Hepatocyte; conditions: 4 h
[20] = Oral bioavailability in cynomolgus monkey at 5 mg/kg; type: ADME, organism-based, Macaca fascicularis; conditions: in vivo
[21] = Plasma protein binding in cynomolgus monkey assessed as unbound fraction ratio at 2 uM; type: ADME, cell-free, Macaca fascicularis
[22] = target: T2, Diacylglycerol O-acyltransferase 1 (Homo sapiens, UniProt O75907); assay: Inhibition of human DGAT1 using [1-14C]decanoyl-CoA and 1,2-didecanoyl-sn-glycerol as substrates assessed as incorporation of [1-14C]decanoyl […] preincubated for 30 mins followed by substrate addition and measured after 30 to 90 mins by scintillation counting method
T2 sequence (O75907 whole entry): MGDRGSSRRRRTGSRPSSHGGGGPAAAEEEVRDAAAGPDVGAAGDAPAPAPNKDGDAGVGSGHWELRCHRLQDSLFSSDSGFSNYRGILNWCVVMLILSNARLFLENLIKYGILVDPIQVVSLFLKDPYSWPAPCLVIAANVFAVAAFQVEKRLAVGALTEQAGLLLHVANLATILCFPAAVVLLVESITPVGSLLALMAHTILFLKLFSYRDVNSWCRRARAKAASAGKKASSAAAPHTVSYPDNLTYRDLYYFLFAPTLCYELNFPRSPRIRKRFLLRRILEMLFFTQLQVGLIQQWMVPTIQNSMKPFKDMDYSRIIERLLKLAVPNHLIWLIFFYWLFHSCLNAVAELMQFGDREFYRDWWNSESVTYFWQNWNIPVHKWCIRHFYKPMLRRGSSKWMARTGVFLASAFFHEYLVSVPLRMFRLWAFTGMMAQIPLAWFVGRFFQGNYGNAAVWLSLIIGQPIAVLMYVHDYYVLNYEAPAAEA

[23] = physchem; conditions: buffer, pH 7.4
Description: Lipophilicity, logD of compound at pH 7.4 by shake flask method

[24] = Drug metabolism in monkey hepatocytes assessed as hydrolytic cleavage of amide bond mediated metabolite formation; type: ADME, cell-based, Macaca mulatta, Hepatocyte; conditions: rhesus monkey
[25] = Plasma protein binding in rat assessed as unbound fraction ratio at 2 uM; type: ADME, cell-free
[26] = Drug metabolism in cryopreserved human hepatocytes assessed as O-deethylation mediated pyridin-3-ol metabolite formation at 10 uM measured for 240 mins by HPLC-UV-MS analysis; type: ADME, cell-based, Hepatocyte; conditions: 4 h
[27] = target: Cytochrome P450 2D6 (Homo sapiens, UniProt P10635); assay: Reversible inhibition of CYP2D6 in pooled human liver microsomes using dextrorphan as substrate incubated for 14 mins in presence of NADPH by HPLC-MS/MS analysis; type: ADME, Microsome
[28] = target: Voltage-gated inwardly rectifying potassium channel KCNH2 (Homo sapiens, UniProt Q12809); assay: Inhibition of hERG by patch-clamp method; type: toxicity
[29] = In vivo inhibition of DGAT2 in high fat/high cholesterol diet fed Sprague-Dawley rat model assessed as reduction in hepatic triglyceride level at 90 mg/kg, po administered twice daily for 7 days starting from day 14 post diet and measured 2 hrs post last dose relative to control; type: functional; parameters: scale not given: the % may be the effect or the level left; conditions: time 7 day
[30] = Plasma protein binding in human assessed as unbound fraction ratio at 2 uM; type: ADME, cell-free
[31] = test system: Rattus norvegicus; assay: In vivo inhibition of DGAT2 in sucrose diet fed Sprague-Dawley rat assessed as reduction in triglyceride level administered as single oral dose and measured after 2 hrs; type: functional, organism-based; conditions: dose 0.3-90 mg/kg, DDE = dose-dependent effect

Sequence of Cytochrome P450 2D6 (P10635 whole entry): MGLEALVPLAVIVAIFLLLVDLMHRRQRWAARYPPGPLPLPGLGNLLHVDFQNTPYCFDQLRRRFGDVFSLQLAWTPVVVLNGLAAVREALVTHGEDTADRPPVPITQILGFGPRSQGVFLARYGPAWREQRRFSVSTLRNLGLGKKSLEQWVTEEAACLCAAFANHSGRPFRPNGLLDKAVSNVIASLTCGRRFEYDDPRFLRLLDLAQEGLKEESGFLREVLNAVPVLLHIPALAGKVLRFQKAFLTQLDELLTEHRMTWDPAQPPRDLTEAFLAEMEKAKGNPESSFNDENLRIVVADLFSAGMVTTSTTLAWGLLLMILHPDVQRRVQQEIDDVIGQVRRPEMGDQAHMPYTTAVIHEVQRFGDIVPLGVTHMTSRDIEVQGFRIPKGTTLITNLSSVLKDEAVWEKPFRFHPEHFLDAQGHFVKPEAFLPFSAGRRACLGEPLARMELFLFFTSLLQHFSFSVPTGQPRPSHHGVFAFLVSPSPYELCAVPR
Sequence of Voltage-gated inwardly rectifying potassium channel KCNH2 (Q12809 whole entry): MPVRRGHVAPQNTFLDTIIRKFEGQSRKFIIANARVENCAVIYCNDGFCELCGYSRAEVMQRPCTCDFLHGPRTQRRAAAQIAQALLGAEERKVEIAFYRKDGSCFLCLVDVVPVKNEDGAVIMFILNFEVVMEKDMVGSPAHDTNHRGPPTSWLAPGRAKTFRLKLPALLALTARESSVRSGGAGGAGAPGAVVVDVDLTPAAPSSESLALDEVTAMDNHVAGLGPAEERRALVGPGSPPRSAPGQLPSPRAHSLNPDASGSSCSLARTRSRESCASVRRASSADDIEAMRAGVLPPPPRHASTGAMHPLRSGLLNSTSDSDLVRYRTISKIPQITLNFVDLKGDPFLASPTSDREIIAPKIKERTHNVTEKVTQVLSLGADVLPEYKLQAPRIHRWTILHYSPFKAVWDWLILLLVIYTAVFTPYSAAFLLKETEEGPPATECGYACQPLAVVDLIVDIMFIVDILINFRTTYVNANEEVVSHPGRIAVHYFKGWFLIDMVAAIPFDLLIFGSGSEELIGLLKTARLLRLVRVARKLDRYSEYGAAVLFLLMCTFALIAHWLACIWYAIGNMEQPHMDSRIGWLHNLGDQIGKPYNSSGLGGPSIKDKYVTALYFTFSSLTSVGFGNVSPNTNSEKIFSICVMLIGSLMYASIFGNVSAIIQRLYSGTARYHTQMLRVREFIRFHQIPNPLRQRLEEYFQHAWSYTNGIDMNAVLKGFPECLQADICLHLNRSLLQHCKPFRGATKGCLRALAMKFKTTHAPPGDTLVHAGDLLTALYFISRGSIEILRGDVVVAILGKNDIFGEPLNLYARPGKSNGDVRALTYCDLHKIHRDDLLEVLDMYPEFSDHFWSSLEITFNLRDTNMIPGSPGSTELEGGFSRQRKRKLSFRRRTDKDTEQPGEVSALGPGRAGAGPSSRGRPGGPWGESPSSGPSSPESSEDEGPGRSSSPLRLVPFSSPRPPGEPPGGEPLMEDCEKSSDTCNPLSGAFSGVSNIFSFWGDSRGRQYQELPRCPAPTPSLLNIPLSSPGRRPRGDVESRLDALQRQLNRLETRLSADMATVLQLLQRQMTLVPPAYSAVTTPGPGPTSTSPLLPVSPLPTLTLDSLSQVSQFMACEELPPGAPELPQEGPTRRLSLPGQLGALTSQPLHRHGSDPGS
Sequence of Cytochrome P450 2C9 (P11712 whole entry): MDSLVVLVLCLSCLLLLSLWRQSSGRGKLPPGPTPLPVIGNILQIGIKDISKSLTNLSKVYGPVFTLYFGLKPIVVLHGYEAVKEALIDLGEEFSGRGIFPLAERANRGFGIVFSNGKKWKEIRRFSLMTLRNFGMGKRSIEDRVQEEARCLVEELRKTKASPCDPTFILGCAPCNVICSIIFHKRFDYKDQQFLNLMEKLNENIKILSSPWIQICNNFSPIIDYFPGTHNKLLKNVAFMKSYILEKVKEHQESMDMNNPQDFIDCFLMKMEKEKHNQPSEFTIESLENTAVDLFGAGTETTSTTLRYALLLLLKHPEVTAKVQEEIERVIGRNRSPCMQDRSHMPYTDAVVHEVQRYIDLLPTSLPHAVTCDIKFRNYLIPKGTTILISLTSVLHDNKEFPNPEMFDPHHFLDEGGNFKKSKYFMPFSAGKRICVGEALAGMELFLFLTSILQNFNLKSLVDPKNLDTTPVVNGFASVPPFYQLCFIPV

CCOc1cccnc1Oc1cncc(-c2ncc(C(=O)N[C@H]3CCOC3)cn2)c1 [PF-06865571]
Activity [1]: Dde | Activity [2]: Non-Toxic | Activity [3]: Dde | pIC50 [4]: 8.22 | pIC50 [5]: < 4.00 | pIC50 [6]: < 4.00 | pIC50 [7]: 5.06 | Activity [8]: 70% | Drug metabolism [9]: Metabolite_Detected | half-life [10]: 1 h | Activity [11]: Non-Toxic | Drug metabolism [12]: Metabolite_Detected | Papp [13]: 190 nm/s | Drug metabolism [14]: Metabolite_Detected | half-life [15]: 4 h | Drug metabolism [16]: Metabolite_Detected | half-life [17]: 0.3 h | clearance [18]: 0.6 L/h/kg | Drug metabolism [19]: Metabolite_Detected | bioavailability [20]: 48% | Ratio [21]: 0.36 | pIC50 [22]: < 4.30 | logD [23]: 1.9 | Drug metabolism [24]: Metabolite_Detected | Ratio [25]: 0.213 | Drug metabolism [26]: Metabolite_Detected | pIC50 [27]: < 4.00 | pIC50 [28]: < 4.00 | Activity [29]: 49% | Ratio [30]: 0.353 | inhibition [31]: Dde

From ChEMBL document CHEMBL5096227, “Discovery of Ervogastat (PF-06865571): A Potent and Selective Inhibitor of Diacylglycerol Acyltransferase 2 for the Treatment of Non-alcoholic Steatohepatitis” (J Med Chem, 2022)
